Literature values in patent US20120301405A1, “Simple Mechanical Procedure and Product for Deterring Substance Abuse” (priority 2005, published 2012).
Like-named read-outs stand apart in the source and are kept apart here.

Key:
[1] = system: benzodiazepine receptors; details: for AED (Approximate Equivalent Dose): based on clinical experience
[2] = for Time to Peak (onset of action, in hours): maximum levels of the drug in the blood after a given dose; for Elimination ½-Life (h) [active metabolite]: value in square brackets
[3] = atypical benzodiazepine receptor ligands table

Structure (SMILES)	AED (Approximate Equivalent Dose) ([1]; benzodiazepine table) [mg]	Time to Peak (onset of action, in hours) [2]	Elimination ½-Life ([2]; parent drug) [h]	further results
Cc1nnc2n1-c1ccc(Cl)cc1C(c1ccccc1)=NC2 [Alprazolam]	0.5	1 to 2 h	6 to 12	
CC(C)(C)OC(=O)c1ncn2c1[C@@H]1CCCN1C(=O)c1c(Br)cccc1-2 [Bretazenil]	0.5		2.5	
O=C1CN=C(c2ccccn2)c2cc(Br)ccc2N1 [Bromazepam]	5 to 6	1 to 3 h	10 to 20	
Cc1nnc2n1-c1sc(Br)cc1C(c1ccccc1Cl)=NC2 [Brotizolam]	0.25	0.5-2^ hours	4 to 5	
CNC1=Nc2ccc(Cl)cc2C(c2ccccc2)=[N+]([O-])C1 [Chlordiazepoxide]				elimination half-life in the elderly compared to younger individuals ([2]; elderly vs younger individuals): twice as long
N#CCCN1C(=O)C(O)N=C(c2ccccc2F)c2cc(Cl)ccc21 (centres unmarked) [Cinolazepam]	40	0.5-2^ hours	9	
CN1C(=O)CC(=O)N(c2ccccc2)c2cc(Cl)ccc21 [Clobazam]				AED (Approximate Equivalent Dose) [1, 3]: 20 mg; Elimination ½-Life [2, 3]: 8 to 60 h
O=C1CN=C(c2ccccc2Cl)c2cc([N+](=O)[O-])ccc2N1 [Clonazepam]	0.5	1 to 4 h	18 to 50	
O=C(O)C1N=C(c2ccccc2)c2cc(Cl)ccc2NC1=O (centres unmarked) [Clorazepate]	15	variable	36 to 100	
CCc1cc2c(s1)N(C)C(=O)CN=C2c1ccccc1Cl [Clotiazepam]	5 to 10	1 to 3 h	6 to 18	
O=C1CN2CCOC2(c2ccccc2Cl)c2cc(Cl)ccc2N1 (centres unmarked) [Cloxazolam]	1			
O=C1CN=C(c2ccccc2Cl)c2cc(Cl)ccc2N1 [Delorazepam]	1	1 to 2 h	60 to 140	
CN1C(=O)CN=C(c2ccccc2)c2cc(Cl)ccc21 [Diazepam]	10	1 to 1.5 h	20 to 100	equivalent dose in an elderly individual on lorazepam versus what would be expected in a younger individual ([1]; elderly individual on lorazepam): up to half; Elimination ½-Life (h) [active metabolite] [2]: [36-200] h
Clc1ccc2c(c1)C(c1ccccc1)=NCc1nncn1-2 [Estazolam]	1 to 2	1 to 5 h	10 to 24	
CN1CCN(C(=O)O[C@H]2c3nccnc3C(=O)N2c2ccc(Cl)cn2)CC1 [Eszopiclone]				Elimination ½-Life [2, 3]: 6 h
CCc1cc2c(s1)-n1c(C)nnc1CN=C2c1ccccc1Cl [Etizolam]	1	1 to 2 h	6	
CCOC(=O)c1ncn2c1CN(C)C(=O)c1cc(F)ccc1-2 [Flumazenil]				Elimination ½-Life [2, 3]: 1 h
CN1C(=O)CN=C(c2ccccc2F)c2cc([N+](=O)[O-])ccc21 [Flunitrazepam]	1	0.5-3^ hours	18 to 26	
CCN(CC)CCN1C(=O)CN=C(c2ccccc2F)c2cc(Cl)ccc21 [Flurazepam]	15 to 30	1 to 1.5 h	40 to 250	
O=C1CN=C(c2ccccc2F)c2cc(Cl)ccc2N1CC1CC1 [Flutoprazepam]	2 to 3	0.5-9^ hours	60 to 90	
O=C1CN=C(c2ccccc2)c2cc(Cl)ccc2N1CC(F)(F)F [Halazepam]	20 to 40	1 to 3 h	30 to 100	

Structure (SMILES)	AED (Approximate Equivalent Dose) ([1]; benzodiazepine table) [mg]	Time to Peak (onset of action, in hours) [2]	Elimination ½-Life ([2]; parent drug) [h]	further results
CC1=CC(=O)N2CC(=O)N(C)c3ccc(Cl)cc3C2(c2ccccc2)O1 (centres unmarked) [Ketazolam]	15 to 30	2.5-3^ hours	30 to 100	Elimination ½-Life (h) [active metabolite] [2]: [36-200] h
CN1CCN(/C=C2\N=C3CN=C(c4ccccc4Cl)c4cc([N+](=O)[O-])ccc4N3C2=O)CC1 [Loprazolam]	1 to 2	0.5-4^ hours	6 to 12	
O=C1Nc2ccc(Cl)cc2C(c2ccccc2Cl)=NC1O (centres unmarked) [Lorazepam]	1	2 to 4 h	10 to 20	
CN1C(=O)C(O)N=C(c2ccccc2Cl)c2cc(Cl)ccc21 (centres unmarked) [Lormetazepam]	1 to 2	0.5-2^ hours	10 to 12	
CN1CCN=C(c2ccccc2)c2cc(Cl)ccc21 [Medazepam]	10		36 to 200	
Cc1ncc2n1-c1ccc(Cl)cc1C(c1ccccc1F)=NC2 [Midazolam]	5 to 8	0.5-1^ hours		
CN1C(=O)CN=C(c2ccccc2)c2cc([N+](=O)[O-])ccc21 [Nimetazepam]	5	0.5-3^ hours	14 to 30	
O=C1CN=C(c2ccccc2)c2cc([N+](=O)[O-])ccc2N1 [Nitrazepam]	10	0.5-7^ hours	15 to 38	
O=C1CN=C(c2ccccc2)c2cc(Cl)ccc2N1 [Nordazepam]	10		50 to 120	
O=C1Nc2ccc(Cl)cc2C(c2ccccc2)=NC1O (centres unmarked) [Oxazepam]		3 to 4 h	4 to 15	
O=C1CN=C(c2ccccc2Cl)c2cc(Br)ccc2N1 [Phenazepam]	1	1.5-4^ hours	60	
C#CCN1C(=O)CN=C(c2ccccc2)c2cc(Cl)ccc21 [Pinazepam]	20		40 to 100	
O=C1CN=C(c2ccccc2)c2cc(Cl)ccc2N1CC1CC1 [Prazepam]	20	2 to 6 h	36 to 200	
Cc1c2c(cn1C)NC(=O)CN=C2c1ccccc1 [Premazepam]	3.75	2 to 6 h	10 to 13	
Fc1ccccc1C1=NCC(=S)N(CC(F)(F)F)c2ccc(Cl)cc21 [Quazepam]	20	1 to 5 h	39 to 120	
CN1C(=O)C(O)N=C(c2ccccc2)c2cc(Cl)ccc21 (centres unmarked) [Temazepam]	20	0.5-3^ hours	8 to 22	
CN1C(=O)CN=C(C2=CCCCC2)c2cc(Cl)ccc21 [Tetrazepam]	100	1 to 3 h	3 to 26	
Cc1nnc2n1-c1ccc(Cl)cc1C(c1ccccc1Cl)=NC2 [Triazolam]	0.25	0.5-2^ hours	2	
CCN(C(C)=O)c1cccc(-c2ccnc3c(C#N)cnn23)c1 [Zaleplon]				AED (Approximate Equivalent Dose) [1, 3]: 20 mg
Cc1ccc(-c2nc3ccc(C)cn3c2CC(=O)N(C)C)cc1 [Zolpidem]				AED (Approximate Equivalent Dose) [1, 3]: 20 mg; Elimination ½-Life [2, 3]: 2.6 h
CN1CCN(C(=O)OC2c3nccnc3C(=O)N2c2ccc(Cl)cn2)CC1 (centres unmarked) [Zopiclone]				AED (Approximate Equivalent Dose) [1, 3]: 15 mg; Elimination ½-Life [2, 3]: 4 to 6 h
